Results from PMC3215271 (European journal of pharmacology, 2011).
pIC50, pKi: −log10 of the molar value. “And” between values parts separate entries of the source, which are not always exact repeats. Equal values may be shown once. “Also recorded” adds a separate entry of the source.

Assays:
[1] = biological target: T1, human serotonin(3) receptor (Homo sapiens, UniProt P46098); test: Competition radioligand binding, [3H]LY278584; conditions: for pKi: 5HT3
T1 sequence (P46098 24-478): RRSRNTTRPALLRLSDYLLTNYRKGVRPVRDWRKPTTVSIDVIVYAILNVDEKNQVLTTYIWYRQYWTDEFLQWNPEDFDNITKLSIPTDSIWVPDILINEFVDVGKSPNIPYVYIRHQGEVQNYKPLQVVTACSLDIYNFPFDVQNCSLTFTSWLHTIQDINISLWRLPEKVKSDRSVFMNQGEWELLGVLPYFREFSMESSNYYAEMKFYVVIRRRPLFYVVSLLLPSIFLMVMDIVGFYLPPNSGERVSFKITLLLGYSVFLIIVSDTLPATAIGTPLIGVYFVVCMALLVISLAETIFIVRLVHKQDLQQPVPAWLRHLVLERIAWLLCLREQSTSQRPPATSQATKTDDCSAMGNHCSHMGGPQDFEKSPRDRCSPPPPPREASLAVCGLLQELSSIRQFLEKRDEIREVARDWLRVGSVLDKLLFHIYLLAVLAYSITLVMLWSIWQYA

[2] = biological target: rat γ-aminobutyric acid(A) receptor; test: Competition radioligand binding, [3H]muscimol, rat brain membranes; conditions: GABAA; [3H]muscimol 5 nM
[3] = biological target: rat γ-aminobutyric acid(B)(1b,2) receptor (Rattus norvegicus, UniProt Q9Z0U4); test: Competition radioligand binding, [3H]CGP54626; conditions: GABAB; [3H]CGP54626 2 nM
[4] = biological target: rat κ-opioid receptor (Rattus norvegicus, UniProt P34975); test: Competition radioligand binding, [3H]U69593; conditions: 95% CI in parentheses
[5] = biological target: human μ-opioid receptor (Homo sapiens, UniProt P35372); test: Competition radioligand binding, [3H]DAMGO; conditions: 95% CI in parentheses
[6] = tested on: formalin-induced flinching behavior; test: Rodent model of inflammatory pain; format: in vivo, rat; conditions: for ED50 (95% CI): formalin test, i.p. 15 min prior to formalin, rat
[7] = tested on: mechanical hyperalgesia; test: Chronic constriction nerve injury model of neuropathic pain; format: in vivo, rat
[8] = tested on: tail flick latency; test: Thermal acute nociception; format: in vivo, rat; conditions: for maximum possible effect: tail-flick
[9] = tested on: rotarod performance; test: Motor coordination; format: in vivo, rat
[10] = tested on: α4β2* nicotinic acetylcholine receptors; conditions: binding assays; ref Zhang et al., 2008; cited from earlier work
[11] = tested on: nicotinic acetylcholine receptors mediating nicotine-evoked dopamine release; conditions: ref Zhang et al., 2008; cited from earlier work
[12] = tested on: nicotinic acetylcholine receptor subtype; test: Agonist activity at nicotinic receptor subtypes in Xenopus oocytes; conditions: any nicotinic acetylcholine receptor subtype evaluated; data not shown
[13] = biological target: α7 nicotinic acetylcholine receptors (Rattus norvegicus, UniProt Q05941); test: Voltage clamp electrophysiology, cloned α7 nicotinic receptor in Xenopus oocytes; conditions: 95% CI in parentheses
[14] = biological target: α2β2 nicotinic acetylcholine receptor (Rattus norvegicus, UniProt P12389+P12390); conditions: 95% CI in parentheses
[15] = biological target: α2β4 nicotinic acetylcholine receptor (Rattus norvegicus, UniProt P12389+P12392); conditions: 95% CI in parentheses
[16] = biological target: α3β2 nicotinic acetylcholine receptor (Rattus norvegicus, UniProt P04757+P12390); conditions: 95% CI in parentheses
[17] = biological target: α3β4 nicotinic acetylcholine receptor (Rattus norvegicus, UniProt P04757+P12392); conditions: 95% CI in parentheses
[18] = biological target: α4β2 nicotinic acetylcholine receptors (Rattus norvegicus, UniProt P09483+P12390)
[19] = biological target: α4β4 nicotinic acetylcholine receptor (Rattus norvegicus, UniProt P09483+P12392); conditions: 95% CI in parentheses
[20] = biological target: α9α10 nicotinic acetylcholine receptors (Rattus norvegicus, UniProt P43144+Q9JLB5)
[21] = biological target: α1β1δε nicotinic acetylcholine receptor (Mus musculus, UniProt P02716+P04756+P09690+P20782); conditions: 95% CI in parentheses
[22] = biological target: α6/α3β4 nicotinic acetylcholine receptor (Rattus norvegicus, UniProt P04757+P12392+P43143); conditions: 95% CI in parentheses
[23] = biological target: α6/α3β2β3 nicotinic acetylcholine receptor (Rattus norvegicus, UniProt P04757+P12390+P12391+P43143); conditions: 95% CI in parentheses
[24] = tested on: formalin-induced flinching behavior; conditions: formalin model; i.p.; ref Holtman et al., 2010b; cited from earlier work
[25] = tested on: mechanical hyperalgesia; conditions: chronic constriction injury; i.p.; ref Holtman et al., 2010b; cited from earlier work
[26] = tested on: rotarod performance; conditions: ref Holtman et al., 2010b, cited from earlier work
[27] = in vivo; cited from earlier work
[28] = chronic constriction injury paw, 3600 μg/kg i.p.

C(#Cc1cc(C#CCCC[n+]2cccc(-c3ccccc3)c2)c(C#CCCC[n+]2cccc(-c3ccccc3)c2)cc1C#CCCC[n+]1cccc(-c2ccccc2)c1)CCC[n+]1cccc(-c2ccccc2)c1.[Br-].[Br-].[Br-].[Br-] [ZZ-204G, 5,5′,5″, 5‴-(1,2,4,5-benzenetetrayl)tetrakis-[1-(3-phenylpyridinium)-4-pentyne] tetrabromide]
pKi ([1]; [3H]LY278584 0.3 nM, 95% CI in parentheses): 5.65
pKi ([1]; displacing [3H]LY27854): 5.66
Hill Slope ([1]; 5HT3 binding, 95% CI in parentheses): 1.05 (0.73–1.37)
pKi [2]: < 5.00
pKi [3]: < 5.00
Hill Slope ([4]; κ-opioid binding): 0.95 (0.67–1.2)
pKi ([4]; κ-opioid, [3H]U69593 0.3 nM): 6.11
Hill Slope ([5]; μ-opioid binding): 1.1 (0.94–1.3)
pKi ([5]; μ-opioid, [3H]DAMGO 0.3 nM): 6.18
ED50 (95% CI) ([6]; the first phase (0–10 min)): 16.2 (2.9–90.3) μg/kg
ED50 (95% CI) ([6]; the second phase (20–60 min)): 2.12 (1.24 – 5.65) μg/kg
greater potency against formalin-evoked inflammatory pain than neuropathic pain ([6]; formalin vs chronic constriction injury): ~ 50 fold
maximum possible effect [7, 28]: 81.9±7.6%
time maximum possible effect was maintained after administration [7, 28]: 240 min
time to reach maximum possible effect [7, 28]: ≤ 60 min
ED50 (95% CL) ([7]; chronic constriction injury, paw pressure test, mechanical hyperalgesia, i.p., rat): 96.2 (35.7–255.3) μg/kg
AUC0–120min (antihyperalgesic effect) ([7]; chronic constriction injury, 3.6 μg/kg i.p.): 932.8±672.1
AUC0–120min (antihyperalgesic effect) ([7]; chronic constriction injury, 36 μg/kg i.p.): 1845.3±1008.0
AUC0–120min (antihyperalgesic effect) ([7]; chronic constriction injury, 360 μg/kg i.p.): 3126.6±840.9
AUC0–120min (antihyperalgesic effect) ([7]; chronic constriction injury, 3600 μg/kg i.p.): 6946.9±1632.2
antinociceptive effect in the tail-flick assay ([8]; 3.6, 36, 360 μg/kg i.p. vs saline): not antinociceptive; also recorded: did not significantly differ from that of saline control
maximum possible effect ([8]; 3.6 μg/kg i.p.): 8.4±4.6%
maximum possible effect ([8]; 36 μg/kg i.p.): 6.2±1.75%
maximum possible effect ([8]; 360 μg/kg i.p.): 15.6±2.4%
motor effect at highest antihyperalgesic dose ([9]; naïve rats, 3,600 ug/kg): significant motor effect
ED50 (95% CI), motor incoordination ([9]; rotarod performance, intact rats, i.p.): 1884 (942–3767) μg/kg
affinity for α4β2* nicotinic acetylcholine receptors [10]: poor affinity
antagonism at nicotinic receptors mediating nicotine-evoked dopamine release [11]: weak antagonist
agonist activity [12]: No agonist activity
Hill Slope [13]: 1.03 (0.48–1.6)
pIC50 ([13]; oocytes, acetylcholine 200 μM): 8.06
Hill Slope [14]: 1.25 (0.98–1.5)
pIC50 ([14]; oocytes, acetylcholine 100 μM): 5.63
Hill Slope [15]: 1.36 (0.98–1.7)
pIC50 ([15]; oocytes, acetylcholine 100 μM): 5.54
Hill Slope [16]: 1.11 (0.28–1.9)
pIC50 ([16]; oocytes, acetylcholine 100 μM): 6.12
Hill Slope [17]: 1.56 (1.1–2.0)
pIC50 ([17]; oocytes, acetylcholine 100 μM): 6.10
block of acetylcholine-induced currents ([18]; 100 nM compound): ~ 5% and < 5%
Hill Slope ([18]; 95% CI in parentheses): 1.05 (0.73–1.4)
pIC50 ([18]; oocytes, acetylcholine 100 μM, 95% CI in parentheses): 5.42
Hill Slope [19]: 1.6 (0.99–2.2)
pIC50 ([19]; oocytes, acetylcholine 100 μM): 5.76
inhibition of the acetylcholine response ([20]; α9α10, 10 nM compound, 0.01 µM): 93.9 ± 1.4% and ~ 95%
effect on current with Ca++ in buffer replaced with equimolar Ba++ ([20]; α9α10, 100 nM compound, n=3, data not shown): abolished the current
Hill Slope ([20]; α9α10, 95% CI in parentheses): 0.84 (0.59–1.1)
reversibility of block ([20]; α9α10, washout of compound): Block was reversed upon washout
potency at κ- and μ-opioid receptors, fold less than at α9α10 ([20]; κ- and μ-opioid receptors vs α9α10): 1000 fold
Hill Slope [21]: 1.61 (1.2–2.1)
pIC50 ([21]; oocytes, acetylcholine 10 μM): 6.92
Hill Slope [22]: 1.2 (0.73–1.8)
pIC50 ([22]; oocytes, acetylcholine 100 μM): 5.21
Hill Slope [23]: 0.44 (0.33–0.56)
pIC50 ([23]; oocytes, acetylcholine 100 μM): 7.01

c1cncc([C@@H]2CCCN2)c1 [S(−) nornicotine]
ED50 [24]: 1.5 (0.6–3.6) mg/kg
ED50 [25]: 5.2 (3.1–8.5) mg/kg
ED50 for motor impairment vs. analgesia, fold higher ([26]; rotarod vs chronic constriction injury and formalin): 3–9 fold
ED50 ([26]; rotarod, motor impairment, i.p.): 13.6 (9.2–19.9) mg/kg

α-conotoxin Vc1.1
adverse effects [27]: did not produce any adverse effects
